In ChEMBL document CHEMBL4420076, “Amylin and calcitonin receptor agonist” (2017):
pEC50, pIC50: −log10 of the molar value. Numbered stars: 1 amine (or outer) side, 2 acyl side, 3 side chain; on linkers, the order of the positions; unused ones are H or OH. Side chains are listed from the residue outwards. Peptide text beside a SMILES is read from it. * marks the point of attachment. C20 diacid = O=C(O)CCCCCCCCCCCCCCCCCCC(=O)*; C18 diacid = O=C(O)CCCCCCCCCCCCCCCCC(=O)*; γGlu = O=C(O)[C@H](CCC(=O)[*:2])N[*:1]; AEEA = NCCOCCOCC(=O)O

How the values were obtained:
[1] = Solubility in 100 mM glycylglycine buffer at pH 4.0 incubated for 18 hrs by UPLC analysis; format: physicochemical
[2] = Solubility in 100 mM bistrispropane buffer at pH 8.0 incubated for 18 hrs by UPLC analysis; format: physicochemical
[3] = biological target: T1, Calcitonin receptor (Homo sapiens, UniProt P30988); experiment: Agonist activity at human calcitonin receptor expressed in BHK570 cells assessed as increase in intracellular cAMP concentration incubated for 3 hrs in presence of 10% FBS by CRE luciferase reporter gene assay; format: functional, cell-based
T1 sequence (P30988 whole entry): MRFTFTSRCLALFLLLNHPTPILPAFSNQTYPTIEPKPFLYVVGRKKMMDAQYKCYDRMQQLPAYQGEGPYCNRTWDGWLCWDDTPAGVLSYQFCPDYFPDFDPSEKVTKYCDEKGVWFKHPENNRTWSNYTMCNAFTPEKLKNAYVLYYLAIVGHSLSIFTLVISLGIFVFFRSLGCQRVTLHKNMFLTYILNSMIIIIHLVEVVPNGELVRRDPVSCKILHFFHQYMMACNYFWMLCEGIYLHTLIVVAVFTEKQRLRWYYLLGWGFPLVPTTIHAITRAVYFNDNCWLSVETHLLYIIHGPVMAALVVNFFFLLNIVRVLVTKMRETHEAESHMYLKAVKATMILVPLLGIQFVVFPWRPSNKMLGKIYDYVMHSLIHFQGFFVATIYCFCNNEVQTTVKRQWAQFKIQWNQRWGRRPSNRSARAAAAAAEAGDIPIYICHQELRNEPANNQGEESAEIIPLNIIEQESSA

[4] = biological target: T1, Calcitonin receptor; experiment: Agonist activity at human calcitonin receptor expressed in BHK570 cells assessed as increase in intracellular cAMP concentration incubated for 3 hrs in absence of albumin by CRE luciferase reporter gene assay; format: functional, cell-based
[5] = Solubility in 100 mM glycylglycine buffer at pH 5.0 incubated for 18 hrs by UPLC analysis; format: physicochemical
[6] = Solubility in 100 mM bistrispropane buffer at pH 6.5 incubated for 18 hrs by UPLC analysis; format: physicochemical
[7] = Solubility in 100 mM glycylglycine buffer at pH 3.0 incubated for 18 hrs by UPLC analysis; format: physicochemical
[8] = Solubility in 100 mM bistrispropane buffer at pH 7.0 incubated for 18 hrs by UPLC analysis; format: physicochemical
[9] = Solubility in 100 mM bistrispropane buffer at pH 6.0 incubated for 18 hrs by UPLC analysis; format: physicochemical
[10] = Solubility in 100 mM bistrispropane buffer at pH 7.5 incubated for 18 hrs by UPLC analysis; format: physicochemical
[11] = biological target: T2, Amylin receptor AMY3; CALCR/RAMP3 (Homo sapiens, UniProt O60896+P30988); experiment: Displacement of [125I]-labeled rat amylin from human amylin receptor expressed in BHK570 cell membranes co-expressing RAMP3 incubated for 120 mins by scintillation proximity assay
T2 sequence (P30988 whole entry): T1 sequence (P30988 whole entry)
T2 sequence (O60896 whole entry): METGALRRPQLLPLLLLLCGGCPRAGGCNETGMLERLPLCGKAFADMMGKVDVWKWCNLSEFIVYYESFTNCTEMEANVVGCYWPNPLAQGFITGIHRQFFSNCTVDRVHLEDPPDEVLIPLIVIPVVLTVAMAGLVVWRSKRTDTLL

[12] = biological target: T1, Calcitonin receptor; experiment: Displacement of [125I]-labeled human calcitonin from human calcitonin receptor expressed in BHK tkts13 cell membranes incubated for 1 hr by scintillation proximity assay
[13] = biological target: T2, Amylin receptor AMY3; CALCR/RAMP3; experiment: Agonist activity at human amylin receptor expressed in BHK570 cells co-expressing RAMP3 assessed as increase in intracellular cAMP concentration incubated for 3 hrs in absence of albumin by CRE luciferase reporter gene assay; format: functional, cell-based
[14] = biological target: T2, Amylin receptor AMY3; CALCR/RAMP3; experiment: Agonist activity at human amylin receptor expressed in BHK570 cells co-expressing RAMP3 assessed as increase in intracellular cAMP concentration incubated for 3 hrs in presence of 10% FBS by CRE luciferase reporter gene assay; format: functional, cell-based
[15] = biological target: T3, Amylin receptor AMY3; CALCR/RAMP3 (Rattus norvegicus, UniProt P32214+Q9JJ73); experiment: Displacement of [125I]-labeled rat amylin from rat amylin receptor expressed in BHK tkts13 cell membranes co-expressing RAMP3 incubated for 120 mins by scintillation proximity assay
T3 sequence (P32214 whole entry): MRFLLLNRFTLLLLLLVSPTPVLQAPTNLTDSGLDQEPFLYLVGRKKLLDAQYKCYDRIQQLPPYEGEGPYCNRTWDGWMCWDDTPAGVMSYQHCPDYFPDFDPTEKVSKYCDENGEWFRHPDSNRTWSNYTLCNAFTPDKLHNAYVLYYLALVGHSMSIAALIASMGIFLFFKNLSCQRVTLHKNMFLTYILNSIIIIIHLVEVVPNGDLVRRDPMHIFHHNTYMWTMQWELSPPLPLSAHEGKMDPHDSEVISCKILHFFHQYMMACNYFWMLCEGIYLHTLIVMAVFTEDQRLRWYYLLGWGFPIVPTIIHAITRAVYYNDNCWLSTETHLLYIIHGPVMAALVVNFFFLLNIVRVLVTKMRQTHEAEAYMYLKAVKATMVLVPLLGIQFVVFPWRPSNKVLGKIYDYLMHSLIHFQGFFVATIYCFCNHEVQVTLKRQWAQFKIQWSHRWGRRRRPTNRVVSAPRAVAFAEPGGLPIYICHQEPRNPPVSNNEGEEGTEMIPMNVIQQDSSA
T3 sequence (Q9JJ73 whole entry): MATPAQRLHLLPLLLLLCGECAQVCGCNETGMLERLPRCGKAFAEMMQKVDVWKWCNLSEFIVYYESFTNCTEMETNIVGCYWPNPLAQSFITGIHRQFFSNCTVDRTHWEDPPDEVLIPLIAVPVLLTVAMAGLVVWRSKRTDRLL

[16] = test system: Rattus norvegicus; experiment: Reduction in food intake in Sprague-Dawley rat at 3 nmol/kg measured 0 to 24 hrs post dose relative to control; format: functional; parameters: scale not given: the % may be the effect or the level left
[17] = Stability in pH 7.5 buffer assessed as lag time for fibril formation at 1 uM by Thioflavin T based fluorescence assay; format: physicochemical; conditions: pH 7.5, 1 µM
[18] = Stability in pH 7.5 buffer assessed as compound recovery at 1 uM by Thioflavin T based fluorescence assay; format: physicochemical; conditions: read-out: Drug recovery
[19] = test system: Rattus norvegicus; experiment: Reduction in food intake in Sprague-Dawley rat at 3 nmol/kg measured 24 to 48 hrs post dose relative to control; format: functional; parameters: scale not given: the % may be the effect or the level left
[20] = biological target: T2, Amylin receptor AMY3; CALCR/RAMP3; experiment: Displacement of [125I]-labeled rat amylin from human amylin receptor expressed in BHK tkts13 whole cells co-expressing RAMP3 incubated for 60 mins by scintillation proximity assay; format: cell-based

| SMILES | solubility at 18 h [1] [µM] | solubility at 18 h [2] [µM] | pEC50 [3] | pEC50 [4] | solubility at 18 h [5] [µM] | solubility at 18 h [6] [µM] | solubility at 18 h [7] [µM] | solubility at 18 h [8] [µM] | solubility at 18 h [9] [µM] | solubility at 18 h [10] [µM] | pIC50 [11] | pIC50 [12] | pEC50 [13] | pEC50 [14] | pIC50 [15] | Activity [16] [%] | Time [17] [h] | remaining at 1 µM [18] [%] | Activity [19] [%] | pIC50 [20] |
| --- | --- | --- | --- | --- | --- | --- | --- | --- | --- | --- | --- | --- | --- | --- | --- | --- | --- | --- | --- | --- |
| CC(=O)N[C@@H](C)C(=O)N[C@@H](CO)C(=O)N[C@@H](CCC(=O)O)C(=O)N[C@@H](CC(C)C)C(=O)N[C@@H](CO)C(=O)N[C@H](C(=O)N[C@@H](C)C(=O)N[C@@H](C)C(=O)N[C@@H](CC(C)C)C(=O)NCC(=O)N[C@@H](CCCNC(=N)N)C(=O)N[C@@H](CC(C)C)C(=O)N[C@@H](CO)C(=O)N[C@@H](C)C(=O)N[C@@H](CCCCNC(=O)CC[C@H](NC(=O)CCCCCCCCCCCCCCCCCCC(=O)O)C(=O)O)C(=O)N[C@@H](CC(C)C)C(=O)N[C@@H](Cc1cnc[nH]1)C(=O)N[C@@H](CCC(=O)O)C(=O)N[C@@H](CC(C)C)C(=O)N[C@@H](C)C(=O)N[C@H](C(=O)N[C@@H](CC(C)C)C(=O)N1CCC[C@H]1C(=O)N[C@@H](CCCNC(=N)N)C(=O)N[C@H](C(=O)N[C@@H](CCC(=O)O)C(=O)N[C@H](C(=O)NCC(=O)N[C@@H](CO)C(=O)NCC(=O)N[C@@H](CO)C(=O)N1CCC[C@H]1C(N)=O)[C@@H](C)O)[C@@H](C)O)[C@@H](C)O)[C@@H](C)O (Ac-ASELSTAALGRLSAK([γGlu-C20 diacid])LHELATLPRTETGSGSP-NH2) | ≥ 200 | ≥ 200 | 10.36 | 10.55 | ≥ 200 | ≥ 200 | ≥ 200 | ≥ 200 | ≥ 200 | ≥ 200 | 10.13 | 10.34 | 10.68 | 10.00 | 9.94 |  |  |  |  |  |
| CC(C)C[C@H](NC(=O)CNC(=O)[C@H](CO)NC(=O)[C@H](C)NC(=O)CC[C@H](NC(=O)CCCCCCCCCCCCCCCCC(=O)O)C(=O)O)C(=O)N[C@@H](CO)C(=O)N[C@H](C(=O)N[C@@H](C)C(=O)N[C@@H](C)C(=O)N[C@@H](CC(C)C)C(=O)NCC(=O)N[C@@H](CCCNC(=N)N)C(=O)N[C@@H](CC(C)C)C(=O)N[C@@H](CO)C(=O)N[C@@H](CCC(N)=O)C(=O)N[C@@H](CCC(=O)O)C(=O)N[C@@H](CC(C)C)C(=O)N[C@@H](Cc1cnc[nH]1)C(=O)N[C@@H](CCC(=O)O)C(=O)N[C@@H](CC(C)C)C(=O)N[C@@H](CCC(N)=O)C(=O)N[C@H](C(=O)N[C@@H](Cc1ccc(O)cc1)C(=O)N1CCC[C@H]1C(=O)N[C@@H](CCCNC(=N)N)C(=O)N[C@H](C(=O)N[C@@H](CCC(=O)O)C(=O)N[C@H](C(=O)NCC(=O)N[C@@H](CO)C(=O)NCC(=O)N[C@H](C(=O)N[C@@H](Cc1ccc(O)cc1)C(N)=O)[C@@H](C)O)[C@@H](C)O)[C@@H](C)O)[C@@H](C)O)[C@@H](C)O ({C18 diacid-γGlu}-ASGLSTAALGRLSQELHELQTYPRTETGSGTY-NH2) | ≥ 200 | ≥ 200 | 10.28 |  |  | ≥ 200 | ≥ 200 | ≥ 200 | ≥ 200 | ≥ 200 | 9.91 | 10.24 |  | 10.15 |  | 44 | > 45 | 100 | 8 |  |
| CC(C)C[C@H](NC(=O)[C@H](C)NC(=O)[C@H](C)NC(=O)[C@@H](NC(=O)[C@H](CO)NC(=O)[C@H](CC(C)C)NC(=O)[C@H](CCC(=O)O)NC(=O)[C@H](CO)NC(=O)[C@H](C)NC(=O)COCCOCCNC(=O)COCCOCCNC(=O)CC[C@H](NC(=O)CCCCCCCCCCCCCCCCCCC(=O)O)C(=O)O)[C@@H](C)O)C(=O)NCC(=O)N[C@@H](CCCNC(=N)N)C(=O)N[C@@H](CC(C)C)C(=O)N[C@@H](CO)C(=O)N[C@@H](C)C(=O)N[C@@H](CCC(=O)O)C(=O)N[C@@H](CC(C)C)C(=O)N[C@@H](Cc1cnc[nH]1)C(=O)N[C@@H](CCC(=O)O)C(=O)N[C@@H](CC(C)C)C(=O)N[C@@H](C)C(=O)N[C@H](C(=O)N[C@@H](CC(C)C)C(=O)N1CCC[C@H]1C(=O)N[C@@H](CCCNC(=N)N)C(=O)N[C@H](C(=O)N[C@@H](CCC(=O)O)C(=O)N[C@H](C(=O)NCC(=O)N[C@@H](CO)C(=O)NCC(=O)N[C@@H](CO)C(=O)N1CCC[C@H]1C(N)=O)[C@@H](C)O)[C@@H](C)O)[C@@H](C)O ({C20 diacid-γGlu-AEEA-AEEA}-ASELSTAALGRLSAELHELATLPRTETGSGSP-NH2) | ≥ 200 | ≥ 200 | 10.46 | 10.92 | ≥ 200 | ≥ 200 | ≥ 200 | ≥ 200 | ≥ 200 | ≥ 200 | 9.80 | 10.30 | 10.77 | 10.17 |  |  | > 45 | 100 |  |  |
| CC(C)C[C@H](NC(=O)[C@H](C)NC(=O)[C@H](C)NC(=O)[C@@H](NC(=O)[C@H](CO)NC(=O)[C@H](CC(C)C)NC(=O)[C@H](CCC(=O)O)NC(=O)[C@H](CO)NC(=O)[C@H](C)NC(=O)CC[C@H](NC(=O)CCCCCCCCCCCCCCCCCCC(=O)O)C(=O)O)[C@@H](C)O)C(=O)NCC(=O)N[C@@H](CCCNC(=N)N)C(=O)N[C@@H](CC(C)C)C(=O)N[C@@H](CO)C(=O)N[C@@H](C)C(=O)N[C@@H](CCC(=O)O)C(=O)N[C@@H](CC(C)C)C(=O)N[C@@H](Cc1cnc[nH]1)C(=O)N[C@@H](CCC(=O)O)C(=O)N[C@@H](CC(C)C)C(=O)N[C@@H](C)C(=O)N[C@H](C(=O)N[C@@H](Cc1ccc(O)cc1)C(=O)N1CCC[C@H]1C(=O)N[C@@H](CCCNC(=N)N)C(=O)N[C@H](C(=O)N[C@@H](CCC(=O)O)C(=O)N[C@H](C(=O)NCC(=O)N[C@@H](CO)C(=O)NCC(=O)N[C@@H](C)C(=O)N1CCC[C@H]1C(N)=O)[C@@H](C)O)[C@@H](C)O)[C@@H](C)O ({C20 diacid-γGlu}-ASELSTAALGRLSAELHELATYPRTETGSGAP-NH2) | ≥ 200 | ≥ 200 | 10.43 | 10.39 | ≥ 200 | ≥ 200 | ≥ 200 | ≥ 200 | ≥ 200 | ≥ 200 | 9.85 | 9.99 |  | 10.00 | 10.59 |  |  |  |  | 8.70 |
